# Measurements taken from patent EP1057825A1, “ISOFLAVANE DERIVATIVES AND IMMUNOPOTENTIATING COMPOSITIONS CONTAINING THE SAME” (SHIONOGI & CO., LTD., priority 1998, dated 1999).
# Legend:
# mouse bone marrow cells = assay: Metabolism promoting action on mouse bone marrow cells (mitochondrial metabolism activity, MTT reduction method); format: cell-based, BALB/c mouse; conditions: 5 days, magnitude of metabolism, no test compound = one; for activity at 0.39 µg/mL / activity at 0.78 µg/mL / activity at 1.56 µg/mL / activity at 3.13 µg/mL / activity at 6.25 µg/mL / activity at 12.5 µg/mL: Mus musculus, Bone marrow cell, 120 h
# From the text: The presence of an immunoactivating action can be determined if the magnitude of metabolism exceeds one, where the cellular metabolism of cells not having test compounds added thereto is defined as one.
# mouse spleen cells = assay: Action on the blastogenesis of mouse spleen cells (ConA-stimulated, MTT reduction method); format: cell-based, BALB/c mouse; conditions: ConA 1 µg/ml, 3 days, rate against no test compound = one; for activity at 0.1 µg/mL / activity at 0.2 µg/mL / activity at 0.39 µg/mL / activity at 0.78 µg/mL / activity at 1.56 µg/mL / activity at 3.13 µg/mL / activity at 6.25 µg/mL: Mus musculus, 72 h
# Procedure: Serial two-fold dilutions (100 µl/well) with 10% FBS of test compounds which are dissolved in a dimethyl sulfoxide (DMSO) solution are obtained on a 96-well microplate, and used as test samples.
# The spleen of a BALB/c mouse is aseptically isolated, and gently ground on a wire mesh with dropwise addition of sterilzed saline. The filtrate is passed through a nylon mesh (Becton Dickinson; pore size: 70 µm), thereby preparing a unicellular suspension.
# (§1) After being washed twice with sterilized saline, the spleen cells are suspended in RPMI1460 containing 10% FCS and containing 1 µg/ml of concanavalin A (abbreviated as ConA: Sigma, U.S.) as well as an antibiotic (Sigma: Antibiotic Antimycotic), and dispensed into a 96-well microplate, in which 100 µl each of diluted test samples are previously dispensed, in amounts of 3 × 10^5 cells/100 µl/well.
# Thereafter, culturing is carried out under 5% carbon dioxide gas at 37°C for 3 days, and then the blastogenesis of lymphocytes is measured by an MTT reduction method [Mosmann T, Journal of Immunological Method, vol. 65, p. 55, 1983]. The blastogenesis rate can be quantitated as a rate against the blastogenesis of those not having test compounds added thereto, which is defined as one. The presence of an immunoactivating action can be determined if the blastogenesis rate exceeds one.
# Serial two-fold dilutions (100 µl/well) with RPMI1640 (Nikken Biomedical Laboratory) containing 10% FBS (bovine fetal serum: Dainippon Pharmaceutical Co., Ltd.) of test compounds which were dissoloved in a dimethylsulfoxide (DMSO) solution were obtained on a 96-well microplate, and used as test samples.
# The spleen of a BALB/c mouse (a 6 week-old female) was aseptically isolated, and gently ground on a wire mesh with dropwise addition of sterilzed saline. The filtrate was passed through a nylon mesh (Becton Dickinson; pore size: 70 µm), thereby preparing a unicellular suspension.
# as §1, with “cells were” for “cells are”, “samples had” for “samples are”, “previously been” for “previously”, “of 3×10^5” for “of 3 × 10^5”
# Thereafter, culturing was carried out under 5% carbon dioxide gas at 37°C for 3 days, and then the blastogenesis of lymphocytes was measured by an MTT reduction method [Mosmann T, Journal of Immunological Method, vol. 65, p. 55, 1983]. The results are shown in [Table 4].
# [1] = Test compound concentration 0.39 µg/ml
# [2] = Test compound concentration 0.78 µg/ml
# [3] = Test compound concentration 1.56 µg/ml
# [4] = Test compound concentration 3.13 µg/ml
# [5] = Test compound concentration 6.25 µg/ml
# [6] = Test compound concentration 12.5 µg/ml
# [7] = concentration of additions in medium 0.1 μg/ml
# [8] = concentration of additions in medium 0.2 μg/ml
# [9] = concentration of additions in medium 0.39 μg/ml
# [10] = concentration of additions in medium 0.78 μg/ml
# [11] = concentration of additions in medium 1.56 μg/ml
# [12] = concentration of additions in medium 3.13 μg/ml
# [13] = concentration of additions in medium 6.25 μg/ml
Compound,activity at 0.39 µg/mL (mouse bone marrow cells; [1]) [%],activity at 0.78 µg/mL (mouse bone marrow cells; [2]) [%],activity at 1.56 µg/mL (mouse bone marrow cells; [3]) [%],activity at 3.13 µg/mL (mouse bone marrow cells; [4]) [%],activity at 6.25 µg/mL (mouse bone marrow cells; [5]) [%],activity at 12.5 µg/mL (mouse bone marrow cells; [6]) [%],activity at 0.1 µg/mL (mouse spleen cells; [7]) [%],activity at 0.2 µg/mL (mouse spleen cells; [8]) [%],activity at 0.39 µg/mL (mouse spleen cells; [9]) [%],activity at 0.78 µg/mL (mouse spleen cells; [10]) [%],activity at 1.56 µg/mL (mouse spleen cells; [11]) [%],activity at 3.13 µg/mL (mouse spleen cells; [12]) [%],activity at 6.25 µg/mL (mouse spleen cells; [13]) [%],other results
"3-(2,4-dimethoxy-3-(3-methyl-2-butenyl)phenyl)-3,4-dihydro-5-hydroxy-7-methoxy-6-(3-methyl-2- butenyl)-2H-1-benzopyran [A-6]",–,–,–,–,–,–,–,–,–,–,–,–,–,metabolism activity of mouse bone marrow cells (mouse bone marrow cells; [1]): 0.97; metabolism activity of mouse bone marrow cells (mouse bone marrow cells; [2]): 1.05; metabolism activity of mouse bone marrow cells (mouse bone marrow cells; [3]): 1.20; metabolism activity of mouse bone marrow cells (mouse bone marrow cells; [4]): 1.52; metabolism activity of mouse bone marrow cells (mouse bone marrow cells; [5]): 0.77; metabolism activity of mouse bone marrow cells (mouse bone marrow cells; [6]): 0.51; blastogenesis rate (mouse spleen cells; [7]): 1.12; blastogenesis rate (mouse spleen cells; [8]): 1.05; blastogenesis rate (mouse spleen cells; [9]): 1.12; blastogenesis rate (mouse spleen cells; [10]): 1.26; blastogenesis rate (mouse spleen cells; [11]): 1.55; blastogenesis rate (mouse spleen cells; [12]): 2.46; blastogenesis rate (mouse spleen cells; [13]): 3.28
"COc1cc2c(c(OC)c1CC=C(C)C)CC(c1ccc(O)c(CC=C(C)C)c1OC)CO2 (stereo not drawn) [A-5, 3-(4-hydroxy-2-methoxy-3-(3-methyl-2-butenyl)-phenyl)-3,4-dihydro-5,7-dimethoxy-6-(3-methyl-2-butenyl)-2H-1-benzopyran]",116,120,138,146,55,53,101,96,107,111,118,209,239,–
"COc1ccc(C2COc3cc(OC)c(CC=C(C)C)c(OC)c3C2)c(OC)c1CC=C(C)C (stereo not drawn) [A-3, 3-(2,4-dimethoxy-3-(3-methyl-2-butenyl)phenyl)-3,4-dihydro-5,7-dimethoxy-6-(3-methyl-2-butenyl)-2H-1-benzopyran]",111,108,114,114,111,62,98,88,88,79,83,120,246,–
"COc1c(C2COc3cc(O)c(CC=C(C)C)c(OC)c3C2)ccc(O)c1CC=C(C)C (stereo not drawn) [A-8, 3-(4-hydroxy-2-methoxy-3-(3-methyl-2-butenyl)-phenyl)-3,4-dihydro-5-methoxy-7-hydroxy-6-(3-methyl-2-butenyl)-2H-1-benzopyran]",113,127,161,156,50,51,111,99,112,122,103,34,23,–
"COc1ccc(C2COc3cc(OC)c(CC=C(C)C)c(OC)c3C2)c(O)c1CC=C(C)C (stereo not drawn) [A-4, 3-(2-hydroxy-4-methoxy-3-(3-methyl-2-butenyl)-phenyl)-3,4-dihydro-5,7-dimethoxy-6-(3-methyl-2-butenyl)-2H-1-benzopyran]",107,107,121,132,133,58,105,101,109,113,155,231,375,–
"COc1c(CC=C(C)C)c(O)cc2c1CC(c1ccc(O)c(CC=C(C)C)c1O)CO2 (stereo not drawn) [A-1, 4-[3,4-dihydro-7-hydroxy-5-methoxy-6-(3-methyl-2-butenyl)-2H-1-benzopyran-3-yl]-2-(3-methyl-2-butenyl)-1,3-benzenediol]",114,101,93,127,198,58,113,109,129,157,188,225,171,–
